Data from US20200016125A1, “GRANZYME B INHIBITOR COMPOSITIONS AND METHODS FOR THE PREVENTION AND/OR TREATMENT OF SKIN BLISTERING AND/OR PEELING” (The University of British Columbia, priority 2017, published 2020).

B1: Serpin A3N: an irreversible serine protease inhibitor used as GzmB inhibitor (protein, UniProt Q91WP6 21-418, looked up)
Serine protease inhibitor A3N: FPDGTLGMDAAVQEDHDNGTQLDSLTLASINTDFAFSLYKELVLKNPDKNIVFSPLSISAALAVMSLGAKGNTLEEILEGLKFNLTETSEADIHQGFGHLLQRLNQPKDQVQISTGSALFIEKRQQILTEFQEKAKTLYQAEAFTADFQQPRQAKKLINDYVRKQTQGMIKELVSDLDKRTLMVLVNYIYFKAKWKVPFDPLDTFKSEFYAGKRRPVIVPMMSMEDLTTPYFRDEELSCTVVELKYTGNASALFILPDQGRMQQVEASLQPETLRKWKNSLKPRMIDELHLPKFSISTDYSLEDVLSKLGIREVFSTQADLSAITGTKDLRVSQVVHKAVLDVAETGTEAAAATGVKFVPMSAKLYPLTVYFNRPFLIMIFDTETEIAPFIAKIANPK

What was measured:
GzmB [1] = biological target: T1, GzmB (Homo sapiens, UniProt P10144); experiment: GzmB-mediated cleavage of nidogen-2 with inhibitor (Western Blot); assay type: biochemical; details: FIG. 22B; nidogen-2 residues 31-1375, 500 ng, 200 nM purified human GzmB, 100 μM Compound A
T1 construct: purchased EmeraldBio
Protocol: (§1) For inhibition studies, prior to the addition of substrates to the reaction, GzmB was incubated in the presence of 100 μM Compound A for 1 hour at 37° C. After 24 hours incubation, proteins were denatured, separated on a 4%-20% SDS-PAGE gel (for α6/β4). […] For inhibition studies, prior to the addition of substrates to the reaction, GzmB was incubated in the presence of 100 μM Compound A for 1 hour at 37° C. After 24 hours incubation, nidogen-2 protein was denatured and separated on a 7.5% SDS-PAGE gel. Cleavage was detected by anti-nidogen-2 antibody (R&D Systems). […] For inhibition studies, prior to the addition of substrates to the reaction, GzmB was incubated in the presence of 100 μM Compound A for 1 hour at 37° C. After 24 hours incubation, collagen VII protein was denatured and separated on a 10% SDS-PAGE gel. Cleavage was detected by anti-collagen VII antibody (ABCAM, Toronto, ON).

GzmB [2] = biological target: T1, GzmB; experiment: GzmB cleavage assay of integrin α6/β4 (α6 and β4 sub-units) with GzmB inhibitors; assay type: biochemical
Protocol: as §1
(§2) The recombinant human integrin α6/β4 (α6 a.a. 24-878, β4 a.a. 28-710, R&D Systems, Minneapolis, Minn.), collagen VII (199-482 a.a., MyBiosource, San Diego, Calif.), collagen XVII (a.a. 490-1497, generous gift from Dr. Claus-Werner Franzke), and collagen I (Novus Biologicals, Littleton, Colo.) were incubated for 24 hours at 37° C. in 200 nM purified human GzmB (EmeraldBio, Bainbridge Island, Wash.). For inhibition studies, prior to the addition of substrates to the reaction, GzmB was incubated in the presence of 600 nm serpin A3N (generous gift from Dr. Chris R. Bleackley, University of Alberta, Edmonton, AB, Canada) or 100 NM of the small molecule inhibitor Compound 20 (courtesy of the Centre for Drug Research and Development, Vancouver, BC) for 1 hour at 37° C. […] Cleavage was detected by Western Blot using anti-human integrin α6 sub-unit (ABCAM), anti-human integrin β4 sub-unit (R&D Systems, Minneapolis, Minn.), anti collagen VII (ABCAM), and anti-human collagen XVII (generous gift from Dr. Claus-Werner Franzke) and imaged using a Li-Cor Odissey® FC (Li-Cor, Lincoln, Nebr.). […]

[3] = tested on: diabetic mouse model, burn injury to induce blistering; experiment: Burn injury blistering in diabetic mouse model; assay type: in vivo; details: for blistering compared to saline-only treatment: FIG. 8B, 30-day study
Protocol: FIGS. 8A through 8C provide evidence Compound A, a GzmB inhibitor, prevents blistering. Mice were exposed to burn injury by heating a steal rod for 6 seconds to 100° C. to induce blistering. Two independent experiments were run: In FIG. 8A, Compound A was added daily for 30 days. […] In FIG. 8B, Compound A in PBS (3.6 mg/mL) was administered daily by subcutaneous injection and in a gel (3.6 mg/mL) administered daily by topical application.
In this example mice were exposed to burn injury by heating a steal rod for 6 seconds to 100° C. to induce blistering.
There were two separate experiments run. Experiment 1 was a 30-day 3-arm study. Arm 1 consisted of treating the mouse daily with Compound A (3.6 mg/mL) in PBS by subcutaneous injection. In arm 2, Compound A (3.6 mg/mL) was administered to the mouse by daily topical application in the gel. In arm 3, the mouse was administered daily by subcutaneous injection saline as a control.
Experiment 2 was a 25-day 2-arm study. Arm 1 consisted of administering daily, through topical application, Compound A (3.6 mg/mL) in the gel. Arm 2 consisted of administering daily the vehicle gel through topical application as a control.

GzmB [4] = biological target: T1, GzmB; experiment: GzmB cleavage assay of collagen VII with GzmB inhibitors (Western Blot); assay type: biochemical; details: for inhibition of GzmB-mediated collagen VII cleavage: FIG. 3, collagen VII 500 ng, 200 mM of GzmB, 24 hours 37° C., GzmB incubated with inhibitor 1 hour before substrate
Protocol: Addition of GzmB inhibitors (Serpin A3N, Compound 20, Compound A) prevented GzmB-mediated collagen VII cleavage. Bands indicating fragments are labeled. GzmB cleavage assay was performed in 40 μL of PBS. Briefly, collagen VII (500 ng) was incubated with […] of GzmB for 24 hours at 37° C. For inhibition, GzmB was incubated with Compound 20, Serpin A3N and Compound A for 1 hour at 37° C. prior to the addition of collagen VII. After 24 hours, all samples were loaded onto a 10% SDS-PAGE, blotted on a PVDF membrane and incubated with a primary antibody specific for collagen VII (rabbit anti-collagen VII, Abcam plc) overnight at 4° C., and then with a secondary labeled anti-rabbit antibody for 1 hour at room temperature.
as §1
A GzmB cleavage assay was performed in 40 μL of PBS. Briefly, collagen VII (500 ng) was incubated with […] of GzmB for 24 hours at 37° C. For inhibition, GzmB was incubated with Compound 20, Serpin A3N and Compound A for 1 hour at 37° C. prior to the addition of collagen VII. After 24 hours all samples were loaded onto a 10% SDS-PAGE, blotted on PVDF membrane and incubated with a primary antibody specific for collagen VII (rabbit anti-collagen VII, Abcam plc) overnight at 4° C., and then with a secondary labeled anti-rabbit antibody for 1 hour at room temperature.
The recombinant human integrin α6/β4 (α6 a.a. 24-878, β4 a.a. 28-710, R&D Systems, Minneapolis, Minn.), collagen VII (199-482 a.a., MyBiosource, San Diego, Calif.), collagen XVII (a.a. 490-1497, generous gift from Dr. Claus-Werner Franzke), and collagen I (Novus Biologicals, Littleton, Colo.) were incubated for 24 hours at 37° C. in 200 nM purified human GzmB (EmeraldBio, Bainbridge Island, Wash.). For inhibition studies, prior to the addition of substrates to the reaction, GzmB was incubated in the presence of 600 nm serpin A3N (generous gift from Dr. Chris R. Bleackley, University of Alberta, Edmonton, AB, Canada) or 100 NM of the small molecule inhibitor Compound 20 (courtesy of the Centre for Drug Research and Development, Vancouver, BC) for 1 hour at 37° C. After the 24 hours incubation, proteins were denatured, separated on a 4-20% (for integrin α6/β4), 10% (for collagen VII), 8-10% (for collagen XVII), or 7.5% (for collagen I) SDS-polyacrylamide gel. Cleavage was detected by Western Blot using anti-human integrin α6 sub-unit (ABCAM), anti-human integrin β4 sub-unit (R&D Systems, Minneapolis, Minn.), anti collagen VII (ABCAM), and anti-human collagen XVII (generous gift from Dr. Claus-Werner Franzke) and imaged using a Li-Cor Odissey® FC (Li-Cor, Lincoln, Nebr.). […]

GzmB [5] = biological target: T1, GzmB; experiment: GzmB-mediated cleavage of collagen XVII with inhibitors (Western Blot); assay type: biochemical; details: FIG. 16A, collagen XVII a.a. 490-1497, 200 nM GzmB, pre-incubation with Compound 20 or serpin A3N
Protocol: Black arrow indicates cleavage fragment and * indicates full-length protein. GzmB produces a cleavage band, and this cleavage is abolished by the addition of Com20 or S3AN. […] Dotted lines indicate separation between the epidermis and the dermis. Scale bars represent […].
as §2

T1 sequence (P10144 21-247): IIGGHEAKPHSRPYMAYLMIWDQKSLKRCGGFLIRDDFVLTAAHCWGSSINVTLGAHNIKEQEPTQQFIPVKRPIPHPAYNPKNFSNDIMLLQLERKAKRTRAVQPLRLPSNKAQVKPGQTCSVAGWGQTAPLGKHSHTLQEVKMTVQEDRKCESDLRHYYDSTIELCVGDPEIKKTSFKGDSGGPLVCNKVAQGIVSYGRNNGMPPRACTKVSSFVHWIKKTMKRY

Row | Molecule | inhibition of GzmB-mediated cleavage of nidogen-2 (GzmB [1]) | inhibition of GzmB-mediated cleavage of α6β4 integrin (GzmB [2]; FIG. 22A, Coomassie staining, 200 nM purified human GzmB, 100 μM Compound A pre-incubated 1 hour) | blistering ([3]; FIG. 8A, mice, burn injury, Compound A daily for 30 days versus saline-treated skin) | blistering compared to saline-only treatment ([3]; Compound A in PBS 3.6 mg/mL, daily subcutaneous injection) | blistering compared to saline-only treatment ([3]; Compound A in gel 3.6 mg/mL, daily topical application) | blistering compared to gel alone ([3]; FIG. 8C, Compound A in gel 3.6 mg/mL, daily topical application, 25-day study) | inhibition of GzmB-mediated collagen VII cleavage (GzmB [4]) | inhibition of GzmB-mediated cleavage of collagen VII (GzmB [4]; FIG. 22C, collagen VII residues 199-482, 500 ng, 200 nM purified human GzmB, 100 μM Compound A pre-incubated 1 hour) | inhibition of GzmB-mediated cleavage of the α6 integrin subunit (GzmB [2]; FIG. 13A, 200 nM GzmB, Western Blot, Compound 20 100 μM, serpin A3N 600 nM) | inhibition of GzmB-mediated cleavage of β4 integrin sub-unit (GzmB [2]; FIG. 14A, 200 nM GzmB, Western Blot, Compound 20 100 μM, serpin A3N 600 nM) | inhibition of GzmB-mediated cleavage of collagen XVII (NC16 ectodomain) (GzmB [5]) | inhibition of GzmB-mediated cleavage of collagen XVII (NC16 ectodomain) (GzmB [5]; listed as S3AN) | inhibition of GzmB-mediated cleavage of collagen VII (GzmB [4]; FIG. 15A, collagen VII a.a. 199-482, 200 nM purified human GzmB, 24 hours, pre-incubation with 600 nm serpin A3N or 100 NM Compound 20) | inhibition of GzmB-mediated cleavage of collagen VII (GzmB [4]; FIG. 15A, collagen VII a.a. 199-482, 200 nM purified human GzmB, 24 hours, pre-incubation with 600 nm serpin A3N or 100 NM Compound 20, listed as S3AN)
1 | CC[C@H](C)[C@H](NC(=O)CCC(=O)O)C(=O)NCC(=O)N1C(=O)N(C2CCCCC2)C[C@H]1C(=O)NCc1nn[nH]n1 [Compound A, 4-(((2S,3S)-1-((2-((S)-5-(((2H-tetrazol-5-yl)methyl)carbamoyl)-3-cyclohexyl-2-oxoimidazolidin-1-yl)-2-oxoethyl)amino)-3-methyl-1-oxopentan-2-yl)amino)-4-oxobutanoic acid] | this cleavage was prevented | can prevent the cleavage | Blistering is prevented | reduce blistering | reduce blistering | reduced blistering | prevented | this cleavage is prevented |  |  |  |  |  | 
2 | B1 |  |  |  |  |  |  | prevented |  | prevented the cleavage | prevented the cleavage | prevented NC16 cleavage | abolished | prevented the appearance of both ˜20 and 25 kDa bands | abolished
